Target: T1, Triggering receptor expressed on myeloid cells 2 (Homo sapiens, UniProt Q9NZC2)
T1 sequence (Q9NZC2 whole entry): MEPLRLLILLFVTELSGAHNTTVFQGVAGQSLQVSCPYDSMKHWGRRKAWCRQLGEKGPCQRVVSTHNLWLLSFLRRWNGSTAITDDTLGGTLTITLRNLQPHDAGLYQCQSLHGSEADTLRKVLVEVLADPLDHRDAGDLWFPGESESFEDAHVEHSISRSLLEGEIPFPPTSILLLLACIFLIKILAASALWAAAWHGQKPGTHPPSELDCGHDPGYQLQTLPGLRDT
Test: Agonist activity at human TREM2 expressed in HEK cells co-expressing human DAP12 assessed as increase in Syk phosphorylation incubated for 30 mins by AlphaLISA assay
Assay type: cell-based

SMILES	EC50 [nM]
Cn1cc([C@H]2CN(c3nc(-c4ccc(Cl)cc4F)c4nc(C(F)F)n(C)c(=O)c4n3)CCO2)cn1	5
Cc1cc([C@@H]2CN(c3cc4c(=O)n(C)c(C(F)F)nc4c(-c4ccc(Cl)cc4F)n3)CCO2)ccn1	3
C[C@H]1CN(c2nc(-c3ccc(Cl)cc3F)c3nc(C(F)(F)F)n(C)c(=O)c3n2)C[C@@H](c2cnn(C3CC3)c2)O1	2
Cc1cc([C@@H]2CN(c3nc(-c4ccc(Cl)cc4F)c4nc(C(F)F)n(C)c(=O)c4n3)CCO2)ccn1	1
COc1cc([C@H]2CN(c3nc(-c4ccc(Cl)cc4F)c4nc(C(F)(F)F)n(C)c(=O)c4n3)CCO2)ccn1	4
Cc1cc(C2CN(c3nc(-c4ccc(Cl)cc4F)c4nc(C(F)F)n(C)c(=O)c4n3)CCO2)ccn1 (stereo unspecified)	2

From ChEMBL document CHEMBL6134927, “Novel Pyrido[3,4-d]pyrimidin-4-one and Pyrimido[5,4-d]pyrimidin-4-one Derivatives as TREM2 Agonists for Treating Parkinson's Disease” (ACS Med Chem Lett, 2025)
